{"source": "patent US11149277B2", "about": "“Method of producing enriched exosomes” (National Health Research Institutes, priority 2016, dated 2021)", "key": {"NAMEC-R cells": {"system": "NAMEC-R cells", "experiment": "NTA of EV release from Ras-transformed NAMEC-R cells", "format": "cell-based", "details": "CM-P4, 4 days; GW 1 μg/ml; SQ 120 and 240 nM", "protocol": "Vesicles in the P4 fractions were counted using NTA. Data are means±SEM (n=6). ***P≤0.001; (B) The Alix, TSG101, CD63, CD81 and GAPDH exosome markers were measured in the CM-P4 fractions of NAMEC-R cells treated with vehicle (Crl), GW627368X (GW, 1 μg/ml), SQ 29,548 (SQ120/SQ240; 120 nM and 240 nM); (C) The mesenchymal marker N-cadherin, CSC markers and exosome markers were analyzed in the conditioned medium P4 fraction derived from equal numbers of vehicle-treated NAMEC-R cells (Crl), GW-treated NAMEC-R cells (GW, 1 μg/ml GW627368X for 4 days) and SQ 29,548-treated NAMEC-R cells (SQ120/SQ240; 120 nM and 240 nM for 4 days). The longer GAPDH(L) and CD81(L) exposures show the low, but detectable, presence of GAPDH and CD81 in the conditioned medium P4 fraction of vehicle-treated NAMEC-R cells.\nWe further investigated whether EP4 antagonism and TP receptor antagonism (as GW has partial affinity to the human TP receptor) affected EV release from transformed mammary epithelial stem cells. Four-day conditioned media of vehicle, GW-, or SQ (a TP antagonist)-treated Ras-transformed NAMEC mammary stem cells (NAMEC-R) were collected and subjected to differential ultracentrifugation to isolate EVs released by the cells. The numbers of vesicles in CM-P4 fractions were determined using NTA (FIG. 20, A). EP4 antagonism elicited release of ˜5000 vesicles per NAMEC-R cell. […]"}, "neural stem cells (NSCs)": {"system": "neural stem cells (NSCs)", "experiment": "EV/exosome markers and SOX2 in neural stem cells", "format": "cell-based", "details": "GW for 4 days", "excerpt": "FIG. 10 includes blots and a graph. (A) is a graph showing vesicle number analysis of GW-treated mesenchymal stem cells (MSCs) P4 fractions. The CM-P4 GW-treated MSCs were collected and subjected to NanoSight Nanoparticle Tracking Analysis (NTA). Quantification of EV/exosome release is shown as the ratio of [vesicle number]/[cell number]. Data are means±SEM (n=3). ***P≤0.001. (B) is a set of blots showing the protein contents measured in the EV/exosome fraction released by MSCs treated with vehicle DMSO (MSC) or EP4 antagonists (MSCGW). The culture media (D1-4: conditioned medium from day 1 to day 4; D5-8: conditioned medium from day 5 to day 8) were collected from MSCs treated with vehicle (MSC), or GW (MSCGW) for 8 days. (C) is a set of blots showing the protein contents measured in the EV/exosome fraction released by neural stem cells (NSCs) treated with vehicle DMSO or EP4 antagonists. The culture media were collected from […] treated with DMSO or GW for 4 days. EV/exosome protein released by the same number of NSCs was loaded in the Western blotting.\nIsolated neural stem cells (NSCs) were cultured in NSC medium (225 ml low glucose DMEM, 225 ml F12, 50 ml vesicle-depleted Bovine serum) with or without an EP4 antagonist (GW at 20-30 μg/ml) for 4 days. The culture medium was supplied with 10-15 μg/ml of GW on the third day of the cultural period. […]"}, "MDA-MB-231 cells": {"system": "MDA-MB-231 cells", "experiment": "NTA and EV protein of CM-P4 fractions of MDA-MB-231 cells", "format": "cell-based, human", "excerpt": "(A) Quantification of EV/exosome release, shown as the number of particles in the CM-P4 fractions released per cell, from MCF-7 and MDA-MB-231 breast cancer cells treated with vehicle or with the indicated concentrations of GW627368X. Particles in the P4 fractions were counted using nanoparticle tracking analysis. Data are means±SEM (n=10). *P≤0.05, ***P≤0.001. (B) Quantification of the total EV protein released from MCF-7 and MDA-MB-231 cells treated with vehicle or with the indicated concentrations of GW627368X. The amounts (m) of protein present per cell in the conditioned medium P4 fractions are presented as means±SEM (n=3). *P≤0.05; (C) Protein levels in the P4 EV/exosome fractions and cell lysates, analyzed by Western blot. Culture media and cell lysates were collected from the same numbers of MCF-7 and MDA-MB-231 cells treated with vehicle or with GW627368X (GW), at the indicated concentrations, for 4 days. The P4 fractions of the culture media, containing EVs, were isolated. […]\nWe next examined whether blocking EP4-mediated signaling with an EP4 antagonist can elicit EV-mediated removal of CSC proteins (e.g., mesenchymal markers and stem cell markers) in the human breast carcinoma MCF-7 and MDA-MB-231 cell lines. P4 fractions from the conditioned media (CM-P4) of GW-treated MCF-7 and MDA-MB-231 cells were analyzed using NTA (FIG. 21, A). […]"}}}
{"smiles": "CCOc1c2c(c(OCC)c3ccccc13)C(=O)N(c1ccc(CC(=O)NS(=O)(=O)c3ccccc3)cc1)C2", "note": "[GW627368X]", "values": [{"measurement": "vesicles released per cell", "setting": "NAMEC-R cells", "result": "~5000", "unit": "vesicles per cell"}, {"measurement": "content of exosomal markers CD81 and GAPDH in NSC culture", "setting": "neural stem cells (NSCs)", "result": "increased"}, {"measurement": "expression level of NSC marker SOX2 vs non-treated NSCs", "setting": "neural stem cells (NSCs)", "result": "much lower"}, {"measurement": "amount of protein per cell in the EV/exosome fraction", "setting": "MDA-MB-231 cells; GW-treated MDA-MB-231", "result": 10, "unit": "fold"}, {"measurement": "numbers of EVs released", "setting": "MDA-MB-231 cells; increasing concentrations of GW", "result": "modestly increased"}]}
